Reference: PubChem BioAssay AID2060487 (Molecular Pharmacology Branch, DTP, NCI, 2025)

Test system: 997537-175-T-J1-PDC complex spheroid viability
Experiment: Anticancer human tumor 997537-175-T-J1-PDC patient-derived colon adenocarcinoma cell line growth inhibition [GQUAD]
Conditions: for IC50: curve of first compound; for viability, T/C: stronger effect = lower value
Excerpt: DNA G-quadruplex Stabilizer Agents in Combinations in Complex Spheroids
A high-throughput screen of multi-cell type tumor spheroids was designed to identify active combinations of DNA G-quadruplex stabilizer agents and targeted small molecules. Complex spheroids include a stromal component modeled by human endothelial cells (HUVEC) and fibroblasts modeled by human mesenchymal stem cells (MSCs). The concentration ranges selected for each drug and investigational agent were based upon clinically achievable concentrations if the clinical Cmax of the agent was known.
Compounds. The drugs and investigational agents: pidnarulex (CX-5461; NSC782164), APTO-253 (NSC789042), BRACO-19 (NSC847499), peposertib (NSC802822), ceralasertib (NSC780249), elimusertib (NSC800525), camonsertib (NSC841442), AZD-1390 (NSC803789), olaparib (NSC753686), talazoparib (NSC767125), ART-558 (NSC835418), sotorasib (NSC818433), MRTX-1133 (NSC836407), SN-38 (NSC673596), topotecan (NSC609699), etoposide (NSC141540), doxorubicin (NSC123127), gemcitabine (NSC613327), 5-fluorouracil (NSC19893), paclitaxel (NSC125973), vemurafenib (NSC761431), panobinostat (NSC761190), R-306465 (JNJ-16241199; NSC773264), adavosertib (NSC754352), TP-3654 (NSC805149), carboplatin (NSC241240), KSQ-4279 (NSC840948), and staurosporine (NSC755774) were obtained from the National Cancer Institute (NCI) Developmental Therapeutics Program Chemical Repository (34). The FDA-approved anticancer drug set is available from the NCI Developmental Therapeutics Program. […] The stock solutions were prepared in dimethyl sulfoxide (DMSO, Sigma-Aldrich, St. Louis, MO, cat. D2650) at 800-fold the tested concentration and stored at -70 degrees C prior to their use. All drugs and investigational agents were tested over a range starting from a high concentration at or near the clinical Cmax and decreasing in half-log increments. If the clinical Cmax for an agent had not been determined, the highest concentration tested was 10 microM.
2.3 Cell Culture. All cells were maintained in an incubator at 37 degrees C and 5% CO2 with 95% humidity. The PDC lines were cultured according to standard operating procedures established by the NCI PDMR. All PDCs were thawed and cultured in Matrigel-coated flasks prepared with a working solution of 1X Ham's F-12 nutrient mix, without supplementation (Invitrogen, cat. 11765054), 100 U/mL penicillin-streptomycin (Invitrogen, cat. 15140122), and 2.5% Matrigel (Corning Inc., cat. 354248) for the first three passages. The 857933-349-R-J2-PDC line was cultured in 6C/Colon 1B media, which includes advanced DMEM/F-12 (Thermo Fisher Scientific, cat. 12634028), 10 mM HEPES (Thermo Fisher Scientific, cat. 15630080), 1X GlutaMAX supplement (Thermo Fisher Scientific, cat. 35050061), 0.1 mg/mL primocin (InvivoGen, cat. ant-pm-2), 10% defined fetal bovine serum, heat inactivated (HyClone Laboratories Inc., cat. SH30070.03HI), 50% L-WRN conditioned media (ATCC, cat. CRL-3276), 1.25 mM N-Acetyl-L-cysteine (Sigma-Aldrich, cat. A9165), 10 mM nicotinamide (Sigma-Aldrich, cat. N0636), 1X B-27 supplement (Thermo Fisher Scientific, cat. 17504044), 1X N-2 supplement (Thermo Fisher Scientific, cat. 17502048), 10 microM Y-27632 dihydrochloride (Tocris Bioscience, cat. 1254), and 50 ng/mL human EGF recombinant protein (Thermo Fisher Scientific, cat. PHG0311). The 485176-168-R4-J1-PDC line was cultured in Panc media, which includes all 6C/Colon 1B media components plus 100 ng/mL human FGF-10 (Thermo Fisher Scientific, cat. 100-26), 500 nM SB-431542 (Selleckchem, cat. S1067), and gastrin (Tocris, cat. 3006).
[…]

[1] = second compound 0.0316 µM, first compound 0.0316 µM
[2] = second compound 0.0316 µM, first compound 0.1 µM
[3] = second compound 0.0316 µM, first compound 0.316 µM
[4] = second compound 0.0316 µM, first compound 1 µM
[5] = second compound 0.0316 µM, first compound 3.16 µM
[6] = second compound 0.0316 µM, first compound 10 µM
[7] = second compound 0.1 µM, first compound 0.0316 µM
[8] = second compound 0.1 µM, first compound 0.1 µM
[9] = second compound 0.1 µM, first compound 0.316 µM
[10] = second compound 0.1 µM, first compound 1 µM
[11] = second compound 0.1 µM, first compound 3.16 µM
[12] = second compound 0.1 µM, first compound 10 µM
[13] = second compound 0.316 µM, first compound 0.0316 µM
[14] = second compound 0.316 µM, first compound 0.1 µM
[15] = second compound 0.316 µM, first compound 0.316 µM
[16] = second compound 0.316 µM, first compound 1 µM
[17] = second compound 0.316 µM, first compound 3.16 µM
[18] = second compound 0.316 µM, first compound 10 µM
[19] = second compound 1 µM, first compound 0.0316 µM
[20] = second compound 1 µM, first compound 0.1 µM
[21] = second compound 1 µM, first compound 0.316 µM
[22] = second compound 1 µM, first compound 1 µM
[23] = second compound 1 µM, first compound 3.16 µM
[24] = second compound 1 µM, first compound 10 µM
[25] = second compound 3.16 µM, first compound 0.0316 µM
[26] = second compound 3.16 µM, first compound 0.1 µM
[27] = second compound 3.16 µM, first compound 0.316 µM
[28] = second compound 3.16 µM, first compound 1 µM
[29] = second compound 3.16 µM, first compound 3.16 µM
[30] = second compound 3.16 µM, first compound 10 µM
[31] = second compound 10 µM, first compound 0.0316 µM
[32] = second compound 10 µM, first compound 0.1 µM
[33] = second compound 10 µM, first compound 0.316 µM
[34] = second compound 10 µM, first compound 1 µM
[35] = second compound 10 µM, first compound 3.16 µM
[36] = second compound 10 µM, first compound 10 µM
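Further: spheroids exposed to the agents for 7 days.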
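Wherever viability, T/C is given: 100% = DMSO vehicle control viability.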

CC(C)n1c(=O)n(C)c2cnc3cc(F)c(-c4ccc(OCCCN5CCCCC5)nc4)cc3c21 + CN(C)c1ccc(Nc2c3ccc(NC(=O)CCN4CCCC4)cc3nc3cc(NC(=O)CCN4CCCC4)ccc23)cc1
IC50 (second compound 0.0316 µM): > 10 µM | IC50 (second compound 0.1 µM): > 10 µM | IC50 (second compound 0.316 µM): > 10 µM | IC50 (second compound 1 µM): > 10 µM | IC50 (second compound 3.16 µM): > 10 µM | IC50 (second compound 10 µM): > 10 µM | viability, T/C [1]: 104% | viability, T/C [2]: 91.2% | viability, T/C [3]: 101% | viability, T/C [4]: 87% | viability, T/C [5]: 83% | viability, T/C [6]: 108% | viability, T/C [7]: 93.8% | viability, T/C [8]: 86% | viability, T/C [9]: 104% | viability, T/C [10]: 64% | viability, T/C [11]: 96.2% | viability, T/C [12]: 98.7% | viability, T/C [13]: 98.4% | viability, T/C [14]: 81.9% | viability, T/C [15]: 95.9% | viability, T/C [16]: 82.7% | viability, T/C [17]: 93.7% | viability, T/C [18]: 95.2% | viability, T/C [19]: 76% | viability, T/C [20]: 89.8% | viability, T/C [21]: 88.9% | viability, T/C [22]: 93.8% | viability, T/C [23]: 92% | viability, T/C [24]: 95% | viability, T/C [25]: 74.3% | viability, T/C [26]: 85.4% | viability, T/C [27]: 91.7% | viability, T/C [28]: 104% | viability, T/C [29]: 106% | viability, T/C [30]: 93.3% | viability, T/C [31]: 86.6% | viability, T/C [32]: 71.7% | viability, T/C [33]: 103% | viability, T/C [34]: 96.7% | viability, T/C [35]: 103% | viability, T/C [36]: 98.4%

CC1COCCN1c1cc(C2(S(C)(=N)=O)CC2)nc(-c2ccnc3[nH]ccc23)n1 (stereo unspecified) + CN(C)c1ccc(Nc2c3ccc(NC(=O)CCN4CCCC4)cc3nc3cc(NC(=O)CCN4CCCC4)ccc23)cc1
IC50 (second compound 0.0316 µM): 8.42 µM | IC50 (second compound 0.1 µM): > 10 µM | IC50 (second compound 0.316 µM): > 10 µM | IC50 (second compound 1 µM): > 10 µM | IC50 (second compound 3.16 µM): > 10 µM | IC50 (second compound 10 µM): > 10 µM | viability, T/C [1]: 93.6% | viability, T/C [2]: 82.9% | viability, T/C [3]: 74.4% | viability, T/C [4]: 84.5% | viability, T/C [5]: 56% | viability, T/C [6]: 49% | viability, T/C [7]: 82.3% | viability, T/C [8]: 80% | viability, T/C [9]: 75.1% | viability, T/C [10]: 59.5% | viability, T/C [11]: 48.6% | viability, T/C [12]: 81.9% | viability, T/C [13]: 98.7% | viability, T/C [14]: 66.3% | viability, T/C [15]: 79.2% | viability, T/C [16]: 76% | viability, T/C [17]: 65% | viability, T/C [18]: 76% | viability, T/C [19]: 90% | viability, T/C [20]: 67.4% | viability, T/C [21]: 87.8% | viability, T/C [22]: 75.8% | viability, T/C [23]: 70.9% | viability, T/C [24]: 70.5% | viability, T/C [25]: 70.2% | viability, T/C [26]: 93% | viability, T/C [27]: 86.7% | viability, T/C [28]: 82.8% | viability, T/C [29]: 73.4% | viability, T/C [30]: 70.6% | viability, T/C [31]: 77% | viability, T/C [32]: 95.7% | viability, T/C [33]: 94.5% | viability, T/C [34]: 88.9% | viability, T/C [35]: 55.5% | viability, T/C [36]: 77%

COc1ccc([C@@H](O)c2cc(-c3ncnc4cc(N5CCOCC5)ccc34)c(F)cc2Cl)nn1 + CN(C)c1ccc(Nc2c3ccc(NC(=O)CCN4CCCC4)cc3nc3cc(NC(=O)CCN4CCCC4)ccc23)cc1
IC50 (second compound 0.0316 µM): > 10 µM | IC50 (second compound 0.1 µM): > 10 µM | IC50 (second compound 0.316 µM): > 10 µM | IC50 (second compound 1 µM): > 10 µM | IC50 (second compound 3.16 µM): > 10 µM | IC50 (second compound 10 µM): > 10 µM | viability, T/C [1]: 90.2% | viability, T/C [2]: 77.6% | viability, T/C [3]: 102% | viability, T/C [4]: 75% | viability, T/C [5]: 72.4% | viability, T/C [6]: 90% | viability, T/C [7]: 97% | viability, T/C [8]: 90.7% | viability, T/C [9]: 78.9% | viability, T/C [10]: 68.4% | viability, T/C [11]: 78% | viability, T/C [12]: 96.9% | viability, T/C [13]: 85.9% | viability, T/C [14]: 65.8% | viability, T/C [15]: 90.1% | viability, T/C [16]: 60.3% | viability, T/C [17]: 81.9% | viability, T/C [18]: 84.9% | viability, T/C [19]: 77.8% | viability, T/C [20]: 82.5% | viability, T/C [21]: 86.6% | viability, T/C [22]: 67.1% | viability, T/C [23]: 100% | viability, T/C [24]: 95.2% | viability, T/C [25]: 84% | viability, T/C [26]: 64.4% | viability, T/C [27]: 93.8% | viability, T/C [28]: 86.1% | viability, T/C [29]: 108% | viability, T/C [30]: 76.3% | viability, T/C [31]: 82.9% | viability, T/C [32]: 86.2% | viability, T/C [33]: 93% | viability, T/C [34]: 84.7% | viability, T/C [35]: 95.2% | viability, T/C [36]: 74.1%
